Assay results reported in patent publication US11390625B2, “Aryl-phosphorus-oxygen compound as EGFR kinase inhibitor” (Chia Tai Tianqing Pharmaceutical Group Co., Ltd., priority 2017, dated 2022).
pIC50: −log10 of the molar value.

Tests used:
[1] = tested on: pEGFR Ba/F3 (EGFR Δ19del/T790M/C797S) cells; assay: Cell phosphorylation inhibition experiment, pEGFR Ba/F3 (EGFR Δ19del/T790M/C797S); type: cell-based; details: for pIC50: Ba/F3 EGFR, Ba/F3 cells, EGF stimulated, read-out: Effect on cellular EGFR phosphorylation Ba/F3(Δ19del/T790M/C797S) IC50
Description: The test compounds and reference compounds were diluted with 100% DMSO to 10 mM or 1 mM, and then a gradient dilution was performed by using Echo, 150 nL per well, with a three-fold concentration gradient and a ten-point dose response curve. The final concentration of the compounds was 100 μM or 10 μM. The suspension cells was centrifuged at 1000 rp for 5 minutes, suspend in Hanks' balanced salt solution, and added to a 384-well plate containing the compounds at 10 L/120K/well (the cell density of 1.2×10^7), followed by centrifugation at 1200 rpm for 30 s and incubation at 37° C. for 30 min. 5 μL of EGF (which has been diluted with 0.1% BSA Hanks' balanced salt solution) was added to each well, in which the final concentration of EGF was 1 μM. The plate was centrifuged at 1200 rpm for 30 s and incubated at 37° C. for 20 min. 5 μL of 4× lysis buffer containing blocking solution was added to each well, and then the plate was centrifuged at 1200 rpm for 30 s, and incubated at 37° C. for 30 min.

[2] = tested on: Ba/F3 (EGFR Δ19del/T790M/C797S) cells; assay: Anti-proliferation experiment on cells (2), Ba/F3 (EGFR Δ19del/T790M/C797S); type: cell-based; details: for pIC50: Ba/F3 EGFR, 72 h, Ba/F3 cells, 3 days, read-out: anti-proliferation effect on cells Ba/F3(Δ19del/T790M/C797S) IC50
Description: The compounds ware transferred to a 384-well plate, with 125 nL of compound per well. […] After 3 days, 25 μL of detection reagent was added. The plate was incubated at room temperature for 10 minutes and then read with Envision.

[3] = molecular target: EGFR (Δ19del/T790M/C797S) (Homo sapiens, UniProt P00533, C797S/T790M, form not given); assay: Enzyme activity experiment (1): EGFR (Δ19del/T790M/C797S) enzyme inhibition; type: biochemical; details: read-out: EGFR (Δ19del/T790M/C797S) IC50
Description: 1) 10 μL of the compounds to be tested and reference compounds diluted to 10 mM were taken into an Echo LDV plate, which were diluted according to the compound profile with Echo.
1) 1×enzyme reaction buffer was prepared: 1× enzyme buffer, 5 mM MgCl2, 1 mM DTT (dithiothreitol), water.
2) A mixed solution of 10 nM enzyme (final concentration of 5 nM) and 2 μM substrate (final concentration of 1 μM) and a solution containing the substrate alone were prepared with the diluted enzyme reaction buffer.
3) 5 μL of the substrate was added into A1-H1, J24-P24 (the number of the well position), and 5 μL of the mixture of the enzyme and substrate was added into the remaining wells.
4) Centrifugation was performed at 1000 rpm at 23° C. for 30 s.
5) Incubation was performed at 23° C. for 15 min.
7) Centrifugation was performed at 1000 rpm at 23° C. for 30 s.
8) Incubation was performed at 23° C. for 60 min.
9) 10 μL of 250 nM TK Antibody-Crypate (a final concentration of 125 nM) and 1×D2 (a final concentration ½ time) prepared with Detection buffer were added.
10) Centrifugation was performed at 1000 rpm at 23° C. for 30 s.
11) Incubation was performed at 23° C. for 60 min.
12) The data was read with Envision, and the ratio was calculated to obtain the IC50 of the compound for inhibiting the enzyme activity.

EGFR (Δ19del/T790M/C797S), sequence (P00533 25-1210 T790M/C797S limits assumed, form open): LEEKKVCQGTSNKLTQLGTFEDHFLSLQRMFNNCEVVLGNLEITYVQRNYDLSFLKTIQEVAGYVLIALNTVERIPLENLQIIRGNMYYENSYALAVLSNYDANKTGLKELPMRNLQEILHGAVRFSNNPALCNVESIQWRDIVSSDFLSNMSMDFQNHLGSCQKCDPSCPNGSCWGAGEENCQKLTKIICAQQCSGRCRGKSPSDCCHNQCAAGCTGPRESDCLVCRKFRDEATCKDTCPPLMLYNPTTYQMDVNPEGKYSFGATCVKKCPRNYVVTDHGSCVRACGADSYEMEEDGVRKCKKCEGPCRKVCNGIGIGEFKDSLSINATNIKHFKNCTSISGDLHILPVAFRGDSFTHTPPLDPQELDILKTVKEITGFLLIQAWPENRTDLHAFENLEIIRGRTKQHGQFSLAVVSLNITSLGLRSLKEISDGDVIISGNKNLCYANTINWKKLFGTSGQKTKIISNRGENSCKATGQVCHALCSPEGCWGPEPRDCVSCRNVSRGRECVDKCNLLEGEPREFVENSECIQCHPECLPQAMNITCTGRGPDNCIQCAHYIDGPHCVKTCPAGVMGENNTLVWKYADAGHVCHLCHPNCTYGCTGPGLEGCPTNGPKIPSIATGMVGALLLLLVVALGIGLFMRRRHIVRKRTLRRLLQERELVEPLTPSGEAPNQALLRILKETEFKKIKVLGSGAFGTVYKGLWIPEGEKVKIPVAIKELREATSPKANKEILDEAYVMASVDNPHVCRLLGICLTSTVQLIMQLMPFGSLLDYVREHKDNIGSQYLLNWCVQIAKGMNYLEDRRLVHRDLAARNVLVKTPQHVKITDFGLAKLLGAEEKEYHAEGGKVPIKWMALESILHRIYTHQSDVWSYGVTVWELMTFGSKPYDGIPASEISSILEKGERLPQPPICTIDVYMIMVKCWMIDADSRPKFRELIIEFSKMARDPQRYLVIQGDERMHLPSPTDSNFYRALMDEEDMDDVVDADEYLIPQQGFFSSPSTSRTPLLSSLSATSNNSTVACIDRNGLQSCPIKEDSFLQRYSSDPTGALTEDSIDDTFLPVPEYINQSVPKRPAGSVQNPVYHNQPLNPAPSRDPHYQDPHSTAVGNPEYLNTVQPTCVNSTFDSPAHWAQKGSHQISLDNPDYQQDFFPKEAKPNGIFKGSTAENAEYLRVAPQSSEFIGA

Question: `COc1cc(N2CCC(N3CCN(C)CC3)CC2)ccc1Nc1ncc(Cl)c(Nc2ccc3[nH]cnc3c2P(C)(C)=O)n1` [Comparative Example 1, reference compound] was tested. Which pIC50 [1] did it give?
Answer: The pIC50 was 5.99.

Question: And the “inhibitory effect on the phosphorylation of Ba/F3 (Δ19del/T790M/C797S) cells” value ([1]; in words)?
Answer: Its value is “almost no inhibitory effect”.

Question: What about the pIC50 [2] of the same compound?
Answer: The pIC50 was under 5.30.

Question: What about the “inhibitory effect on Ba/F3 cells with three mutations (EGFR Δ19del/T790M/C797S)” value ([2]; in words) of the same compound?
Answer: Its value is “almost no inhibitory effect”.

Question: With `COc1cc(N2CCC3(CCN(C)CC3)CC2)c(Cl)cc1Nc1ncc(Cl)c(Nc2ccc3sccc3c2P(C)(C)=O)n1` [Compound 1] as the compound, how does the pIC50 [3] read?
Answer: Its pIC50 is 8.58.

Question: How did the pIC50 [1] turn out when `COc1cc(N2CCC(N3CCN(C)CC3)CC2)ccc1Nc1ncc(Cl)c(Nc2ccc3cccnc3c2P(C)(C)=O)n1` [Compound 7] was run?
Answer: The pIC50 was 6.27.

Question: Which results are given for `COc1cc(N2CCC3(CC2)CN(C)C3)c(C)cc1Nc1ncc(Cl)c(Nc2ccc3nccnc3c2P(C)(C)=O)n1` [Compound 8]?
Answer: pIC50 [1]: 6.88; pIC50 [3]: 9.10; pIC50 [2]: 6.56

Question: With `COc1cc(N2CCC3(CC2)CN(C)C3)c(C)cc1Nc1ncc(Cl)c(Nc2ccc3c(c2P(C)(C)=O)CCC3)n1` [Compound 16] as the compound, how does the pIC50 [3] read?
Answer: The pIC50 was 9.31.

Question: And the pIC50 [2]?
Answer: The pIC50 was 6.68.

Question: `COc1cc(N2CCC3(CC2)CN(C)C3)c(C)cc1Nc1ncc(OC(=O)N(C)C)c(Nc2ccc3ccccc3c2P(C)(C)=O)n1` [Compound 17] was tested. Which pIC50 [3] did it give?
Answer: The pIC50 was 6.07.

Question: What about the pIC50 [2] of the same compound?
Answer: Its pIC50 is 5.32.

Question: What does the source list for `COc1ccc(OCCNCc2cnccn2)cc1Nc1ncc(Cl)c(Nc2ccc3ccccc3c2P(C)(C)=O)n1` [Compound 18]?
Answer: pIC50 [3]: 7.60; pIC50 [2]: 5.78

Question: With `COc1ccc(OCCNCc2cccnc2)cc1Nc1ncc(Cl)c(Nc2ccc3ccccc3c2P(C)(C)=O)n1` [Compound 19] as the compound, how does the pIC50 [3] read?
Answer: Its pIC50 is 7.89.

Question: And the pIC50 [2]?
Answer: Its pIC50 is 5.91.

Question: What does the source list for `COc1cc(N2CCC3(CC2)CN(CCN(C)C)C3)c(C)cc1Nc1ncc(Cl)c(Nc2ccc3ccccc3c2P(C)(C)=O)n1` [Compound 20]?
Answer: pIC50 [3]: > 10.29; pIC50 [2]: 6.67

Question: `COc1cc(N2CCC3(CC2)CN(C)C3)c(C)cc1Nc1ncc(Br)c(Nc2ccc3ccccc3c2P(C)(C)=O)n1` [Compound 23] was tested. Which pIC50 [1] did it give?
Answer: The pIC50 was 7.47.

Question: And the pIC50 [3]?
Answer: The pIC50 was 10.29.

Question: And the pIC50 [2]?
Answer: Its pIC50 is 6.99.

Question: `COc1cc(N2CCC3(CC2)CN(C)C3)c(C)cc1Nc1ncc(C2CC2)c(Nc2ccc3ccccc3c2P(C)(C)=O)n1` [Compound 25] was tested. Which pIC50 [3] did it give?
Answer: Its pIC50 is 8.75.

Question: What about the pIC50 [2] of the same compound?
Answer: Its pIC50 is 6.19.

Question: `COc1cc(N2CCC3(CC2)CN(C)C3)c(C)cc1Nc1ncc(C#N)c(Nc2ccc3ccccc3c2P(C)(C)=O)n1` [Compound 26] was tested. Which pIC50 [3] did it give?
Answer: The pIC50 was 9.17.

Question: What about the pIC50 [2] of the same compound?
Answer: Its pIC50 is 6.12.

Question: Which results are given for `COc1ccc(OCCNS(C)(=O)=O)cc1Nc1ncc(Cl)c(Nc2ccc3ccccc3c2P(C)(C)=O)n1` [Compound 29]?
Answer: pIC50 [3]: 7.17; pIC50 [2]: 5.80

Question: How did the pIC50 [1] turn out when `CCc1cc(Nc2ncc(Br)c(Nc3ccc4ccccc4c3P(C)(C)=O)n2)c(OC)cc1N1CCC2(CC1)CN(C)C2` [Compound 32] was run?
Answer: The pIC50 was 7.24.

Question: And the pIC50 [2]?
Answer: Its pIC50 is 7.10.

Question: How did the pIC50 [1] turn out when `COc1cc(N2CCC3(CC2)CN(CCN(C)C)C3)c(C)cc1Nc1ncc(Cl)c(Nc2ccc3nccnc3c2P(C)(C)=O)n1` [Compound 39] was run?
Answer: Its pIC50 is 6.71.

Question: What about the pIC50 [2] of the same compound?
Answer: Its pIC50 is 6.73.

Question: How did the pIC50 [1] turn out when `COc1cc(N2CCC(N(C)C)CC2)c(C)cc1Nc1ncc(Br)c(Nc2ccc3nccnc3c2P(C)(C)=O)n1` [Compound 44] was run?
Answer: Its pIC50 is 8.05.

Question: With `COc1cc(N2CCN(C)CC2)c(C)cc1Nc1ncc(Br)c(Nc2ccc3nccnc3c2P(C)(C)=O)n1` [Example 45] as the compound, how does the pIC50 [1] read?
Answer: Its pIC50 is 7.57.

Question: And the pIC50 [2]?
Answer: Its pIC50 is 7.06.
